In ChEMBL document CHEMBL3351580, “Pyrano-isochromanones as IL-6 inhibitors: synthesis, in vitro and in vivo antiarthritic activity” (J Med Chem, 2014):
Activity calls are given as the source filed them. No cut-off for these calls is given here.

Key:
Mus musculus [1] = assay: Antiarthritic activity in DBA/1J mouse collagen-induced arthritis model assessed as reduction in anticollagen antibody IgG1 level at 3 to 30 mg/kg, po administered once daily for 49 days starting from onset of disease and measured after 14 days of disease onset by ELISA method; type: functional, organism-based
Mus musculus [2] = assay: Antiarthritic activity in BALB/c mouse assessed as reduction in SRBC-induced blood IFNgamma level administered orally once daily for 14 days measured 4 hrs post last dose by ELISA method; type: functional, organism-based
Cytochrome P450 2D6 = Cytochrome P450 2D6 (Homo sapiens, UniProt P10635); assay: Activation of CYP2D6 (unknown origin) assessed as increase in enzyme activity at 10 uM; type: ADME
Chain of Cytochrome P450 2D6 (P10635 whole entry): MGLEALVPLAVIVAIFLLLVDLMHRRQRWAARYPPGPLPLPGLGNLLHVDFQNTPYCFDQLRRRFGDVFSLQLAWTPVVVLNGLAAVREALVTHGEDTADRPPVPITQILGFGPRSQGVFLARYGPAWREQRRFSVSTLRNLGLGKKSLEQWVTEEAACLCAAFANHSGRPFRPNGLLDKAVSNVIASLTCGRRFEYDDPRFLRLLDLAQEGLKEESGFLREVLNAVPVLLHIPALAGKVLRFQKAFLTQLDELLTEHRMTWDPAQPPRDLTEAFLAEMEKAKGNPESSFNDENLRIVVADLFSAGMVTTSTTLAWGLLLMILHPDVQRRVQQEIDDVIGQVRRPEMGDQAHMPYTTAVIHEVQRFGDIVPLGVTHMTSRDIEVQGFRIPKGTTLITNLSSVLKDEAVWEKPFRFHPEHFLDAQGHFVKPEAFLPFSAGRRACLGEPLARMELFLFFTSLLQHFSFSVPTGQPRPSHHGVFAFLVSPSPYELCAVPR

[3] = Solubility in water; type: physicochemical
[4] = Therapeutic index, ratio of cytotoxic IC50 for human THP1 cells by MTT assay to IC50 for inhibition of LPS-induced IL6 production in human THP1 cells; type: cell-based, THP-1; details: read-out: Ratio IC50
[5] = Solubility in SIF solution; type: physicochemical
Mus musculus [6] = assay: Antiarthritic activity in DBA/1J mouse collagen-induced arthritis model assessed as reduction in IL-1beta level at 3 to 30 mg/kg, po administered once daily for 49 days starting from onset of disease and measured after 3 to 49 days of disease onset by ELISA method; type: functional, organism-based
B-cell = assay: Inhibition of LPS-induced cell proliferation of B cells (unknown origin) at 10 uM after 72 hrs by MTT assay; type: functional
Mus musculus [7] = assay: Immunosuppressive activity in BALB/c mouse assessed as reduction in SRBC-induced humoral immunity by measuring IgG level at 3 to 30 mg/kg, po administered once daily for 14 days measured 4 hrs post last dose; type: functional, organism-based
THP-1 [8] = assay: Cytotoxicity against human THP1 cells after 24 hrs by MTT assay; type: cell-based; details: THP-1, 24 h
THP-1 [9] = assay: Inhibition of LPS-induced IL-1beta production in human THP1 cells at 10 uM after 24 hrs; type: functional; details: THP-1, 24 h
Mus musculus [10] = assay: Antiarthritic activity in DBA/1J mouse collagen-induced arthritis model assessed as reduction in paw swelling at 30 mg/kg, po administered once daily for 49 days starting from onset of disease; type: functional; details: 1176 h
THP-1 [11] = assay: Inhibition of LPS-induced nitric oxide production in human THP1 cells at 10 uM after 24 hrs by Griess assay; type: functional; details: THP-1, 24 h
[12] = Inhibition of concanavalin A-induced cell proliferation of T cells (unknown origin) at 10 uM after 72 hrs by MTT assay; type: functional
[13] = target: Inhibitor of NF-kappa-B kinase (IKK) (Homo sapiens) (UniProt O14920+O15111+Q9Y6K9); assay: Inhibition of IKKbeta expression in human THP1 cells at 20 to 100 uM by Western blotting method; type: functional, cell-based; details: THP-1
[14] = Efflux ratio in human Caco2 cells; type: ADME, cell-based; details: Caco-2
Mus musculus [15] = assay: Immunosuppressive activity in BALB/c mouse assessed as reduction in SRBC-induced DTH response at 3 to 30 mg/kg, po administered once daily for 14 days measured 4 hrs post last dose; type: functional, organism-based
CYP2C9 = CYP2C9 (Homo sapiens, UniProt P11712); assay: Inhibition of CYP2C9 (unknown origin) at 10 uM; type: ADME
Chain of CYP2C9 (P11712 whole entry): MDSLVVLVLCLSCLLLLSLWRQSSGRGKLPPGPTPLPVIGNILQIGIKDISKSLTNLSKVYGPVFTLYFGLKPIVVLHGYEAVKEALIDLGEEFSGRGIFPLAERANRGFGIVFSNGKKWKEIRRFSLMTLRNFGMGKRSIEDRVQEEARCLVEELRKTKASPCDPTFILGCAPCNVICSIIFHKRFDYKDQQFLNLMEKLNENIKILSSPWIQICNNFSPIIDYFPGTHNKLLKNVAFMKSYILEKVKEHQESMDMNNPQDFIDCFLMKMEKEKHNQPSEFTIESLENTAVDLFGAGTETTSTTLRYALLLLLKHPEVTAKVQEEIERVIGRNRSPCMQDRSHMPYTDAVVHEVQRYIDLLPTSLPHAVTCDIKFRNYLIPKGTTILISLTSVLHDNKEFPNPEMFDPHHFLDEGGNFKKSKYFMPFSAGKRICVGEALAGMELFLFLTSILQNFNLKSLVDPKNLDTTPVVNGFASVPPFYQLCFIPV

Mus musculus [16] = assay: Antiinflammatory activity in BALB/c mouse assessed as serum TNFalpha level at 10 mg/kg, po qd for 5 days followed by LPS challenge 1 hr after last compound dose on fifth day and measured 4 hrs post LPS challenge by ELISA method (reference value: 717 +/- 218 pg/mL); type: functional
THP-1 [17] = assay: Inhibition of LPS-induced IL6 production in human THP1 cells after 24 hrs; type: functional, cell-based; details: THP-1, 24 h
Mus musculus [18] = assay: Antiarthritic activity in DBA/1J mouse collagen-induced arthritis model assessed as reduction in anticollagen antibody IgG2a level at 3 to 30 mg/kg, po administered once daily for 49 days starting from onset of disease and measured after 14 days of disease onset by ELISA method; type: functional, organism-based
[19] = Apparent permeability from apical to basolateral side in human Caco2 cells; type: ADME, cell-based; details: Caco-2
CYP2C19 = CYP2C19 (Homo sapiens, UniProt P33261); assay: Inhibition of CYP2C19 (unknown origin) at 10 uM; type: ADME
Chain of CYP2C19 (P33261 whole entry): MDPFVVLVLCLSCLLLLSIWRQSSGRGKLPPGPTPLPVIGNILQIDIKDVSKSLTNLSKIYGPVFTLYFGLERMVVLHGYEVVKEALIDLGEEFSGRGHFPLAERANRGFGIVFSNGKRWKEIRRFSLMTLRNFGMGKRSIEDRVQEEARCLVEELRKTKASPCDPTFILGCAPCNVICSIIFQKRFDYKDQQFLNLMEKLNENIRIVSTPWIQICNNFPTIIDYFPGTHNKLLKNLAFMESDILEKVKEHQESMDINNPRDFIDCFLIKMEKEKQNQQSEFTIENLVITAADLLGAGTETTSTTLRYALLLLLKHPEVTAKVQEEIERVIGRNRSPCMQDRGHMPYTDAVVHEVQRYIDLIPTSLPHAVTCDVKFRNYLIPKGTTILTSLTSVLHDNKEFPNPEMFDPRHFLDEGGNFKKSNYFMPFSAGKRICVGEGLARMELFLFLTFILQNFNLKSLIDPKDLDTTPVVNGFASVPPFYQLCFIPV

Mus musculus [20] = assay: Immunosuppressive activity in BALB/c mouse assessed as reduction in SRBC-induced humoral immunity by measuring IgM level at 3 to 30 mg/kg, po administered once daily for 14 days measured 4 hrs post last dose; type: functional, organism-based
THP-1 [21] = assay: Inhibition of LPS-induced TNFalpha production in human THP1 cells after 24 hrs; type: functional, cell-based; details: THP-1, 24 h
Mus musculus [22] = assay: Antiinflammatory activity in BALB/c mouse assessed as serum IL6 level at 100 mg/kg, po qd for 5 days followed by LPS challenge 1 hr after last compound dose on fifth day and measured 4 hrs post LPS challenge by ELISA method (reference value: 410 +/- 95 pg/mL); type: functional
THP-1 [23] = assay: Cytotoxicity against human THP1 cells after 48 hrs by MTT assay; type: cell-based; details: THP-1, 48 h
Mus musculus [24] = assay: Antiarthritic activity in DBA/1J mouse collagen-induced arthritis model assessed as reduction in IL6 level at 3 to 30 mg/kg, po administered once daily for 49 days starting from onset of disease and measured after 3 to 49 days of disease onset by ELISA method; type: functional, organism-based
Mus musculus [25] = assay: Antiinflammatory activity in BALB/c mouse assessed as serum nitric oxide level at 100 mg/kg, po qd for 5 days followed by LPS challenge 1 hr after last compound dose on fifth day and measured 4 hrs post LPS challenge by Griess assay (reference value: 6.95 +/- 1.81 uM); type: functional
Mus musculus [26] = assay: Antiarthritic activity in DBA/1J mouse collagen-induced arthritis model assessed as reduction in anticollagen antibody IgG2a level at 3 to 30 mg/kg, po administered once daily for 49 days starting from onset of disease and measured after 49 days of disease onset by ELISA method; type: functional, organism-based
[27] = Solubility in SGF solution; type: physicochemical
CYP3A4 = CYP3A4 (Homo sapiens, UniProt P08684); assay: Inhibition of CYP3A4 (unknown origin) at 10 uM; type: ADME
Chain of CYP3A4 (P08684 whole entry): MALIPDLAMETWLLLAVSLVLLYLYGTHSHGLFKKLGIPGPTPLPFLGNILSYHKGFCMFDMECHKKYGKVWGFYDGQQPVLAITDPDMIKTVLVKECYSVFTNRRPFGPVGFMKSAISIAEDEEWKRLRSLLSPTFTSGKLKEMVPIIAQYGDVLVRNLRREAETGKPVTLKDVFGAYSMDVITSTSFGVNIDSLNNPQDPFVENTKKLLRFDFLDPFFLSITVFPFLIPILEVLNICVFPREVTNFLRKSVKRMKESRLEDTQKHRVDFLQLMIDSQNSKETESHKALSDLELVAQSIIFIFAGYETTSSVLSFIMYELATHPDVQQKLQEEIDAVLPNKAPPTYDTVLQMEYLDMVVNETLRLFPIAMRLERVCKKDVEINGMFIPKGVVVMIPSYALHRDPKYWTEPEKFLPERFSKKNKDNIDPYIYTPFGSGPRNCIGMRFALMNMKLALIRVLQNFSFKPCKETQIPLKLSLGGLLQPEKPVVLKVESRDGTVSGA

Mus musculus [28] = assay: Antiarthritic activity in DBA/1J mouse collagen-induced arthritis model assessed as reduction in anticollagen antibody IgG1 level at 3 to 30 mg/kg, po administered once daily for 49 days starting from onset of disease and measured after 49 days of disease onset by ELISA method; type: functional, organism-based
Mus musculus [29] = assay: Antiinflammatory activity in BALB/c mouse assessed as serum IL6 level at 10 mg/kg, po qd for 5 days followed by LPS challenge 1 hr after last compound dose on fifth day and measured 4 hrs post LPS challenge by ELISA method (reference value: 410 +/- 95 pg/mL); type: functional
[30] = Apparent permeability from basolateral to apical side in human Caco2 cells; type: ADME, cell-based; details: Caco-2
Mus musculus [31] = assay: Antiarthritic activity in DBA/1J mouse collagen-induced arthritis model assessed as reduction in TNFalpha level at 3 to 30 mg/kg, po administered once daily for 49 days starting from onset of disease and measured after 3 to 49 days of disease onset by ELISA method; type: functional, organism-based
Mus musculus [32] = assay: Antiarthritic activity in BALB/c mouse assessed as reduction in SRBC-induced blood IL4 level administered orally once daily for 14 days measured 4 hrs post last dose by ELISA method; type: functional, organism-based

CCN(CC)Cc1c(O)c(OC)c(O)c2c1C(=O)O[C@@H]1[C@@H](O)[C@H](O)[C@@H](CO)O[C@@H]21
inhibition (Mus musculus [1]): Active
inhibition (Mus musculus [2]): Dose-dependent effect
Activity (Cytochrome P450 2D6): 36%
solubility [3]: > 1500 µg/mL
selectivity ratio [4]: > 400
solubility [5]: > 1500 µg/mL
inhibition (Mus musculus [6]): Active
inhibition at 10 µM (B-cell): 47.9%
inhibition (Mus musculus [7]): Active
IC50 (THP-1 [8]): 110 µM
inhibition at 10 µM (THP-1 [9]): 41%
inhibition in vivo at 30 mg/kg (Mus musculus [10]): 28%
inhibition at 10 µM (THP-1 [11]): 41%
inhibition at 10 µM [12]: 53.7%
inhibition [13]: Active
efflux ratio [14]: 2.2
inhibition (Mus musculus [15]): Active
inhibition at 10 µM (CYP2C9): 32%
Activity (Mus musculus [16]): 585 pg/mL
IC50 (THP-1 [17]): 0.166 µM
inhibition (Mus musculus [18]): Active
Papp A→B [19]: 0.72 ×10⁻⁶ cm/s
inhibition at 10 µM (CYP2C19): 6%
inhibition (Mus musculus [20]): Active
IC50 (THP-1 [21]): 13.4 µM
Activity (Mus musculus [22]): 275 pg/mL
IC50 (THP-1 [23]): 77 µM
inhibition (Mus musculus [24]): Active
Activity (Mus musculus [25]): 3 µM
inhibition (Mus musculus [26]): Active
solubility [27]: > 1500 µg/mL
inhibition at 10 µM (CYP3A4): 15%
inhibition (Mus musculus [28]): Active
Activity (Mus musculus [29]): 102 pg/mL
Papp B→A [30]: 1.59 ×10⁻⁶ cm/s
inhibition (Mus musculus [31]): Active
inhibition (Mus musculus [32]): Dose-dependent effect
